Experimental data taken from patent US20240270762A1, “PENICILLIN-BINDING PROTEIN INHIBITORS” (priority 2021, published 2024).
pIC50: −log10 of the molar value. Values after ≈ are worked out from the molar mass of the structure shown.

Tests used:
[1] = target: T1, PBP3 from Acinetobacter baumannii (ATCC 19606) (Acinetobacter baumannii, UniProt A0ABX6CK25); experiment: Bocillin-FL fluorescence polarization competition binding, A. baumannii PBP3; conditions: fluorescence polarization competition binding assay using Bocillin-FL; read-out: A. baumannii PBP3 Potency
T1 sequence (A0ABX6CK25 64-610): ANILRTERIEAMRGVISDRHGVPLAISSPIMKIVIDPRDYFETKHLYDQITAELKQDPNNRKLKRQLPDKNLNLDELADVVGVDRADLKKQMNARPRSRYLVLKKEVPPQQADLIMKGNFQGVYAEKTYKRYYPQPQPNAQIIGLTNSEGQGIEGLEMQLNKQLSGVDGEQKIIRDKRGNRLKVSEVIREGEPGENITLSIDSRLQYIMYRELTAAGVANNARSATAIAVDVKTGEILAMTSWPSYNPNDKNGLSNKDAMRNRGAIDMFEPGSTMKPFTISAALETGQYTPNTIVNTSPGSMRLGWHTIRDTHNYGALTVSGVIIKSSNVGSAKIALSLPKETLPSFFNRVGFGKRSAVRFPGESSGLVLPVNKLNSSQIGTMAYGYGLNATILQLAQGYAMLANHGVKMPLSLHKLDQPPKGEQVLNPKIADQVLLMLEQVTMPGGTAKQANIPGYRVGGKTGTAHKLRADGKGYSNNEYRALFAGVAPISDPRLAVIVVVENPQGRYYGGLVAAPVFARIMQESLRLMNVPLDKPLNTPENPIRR
Summary of the method: (§1)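 Purified PBP was preincubated with inhibitor (E. coli PBP3 1.5 μM, 30 min; P. aeruginosa PBP3 0.75 μM, A. baumannii PBP3 0.2 μM and PBP1a 1 μM, 15 min), then Bocillin-FL (0.1 μM; 0.05 μM for PBP1a) added and FP read up to 60 min. EC50 = 50% loss of bound probe.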

A. baumannii CDC-0033 = experiment: microbe, parasite or virus in culture; type: cell-based; conditions: Acinetobacter baumannii, CDC0033, read-out: MIC, A. baumannii CDC-0033
[2] = tested on: P. aeruginosa (ΔmexAB-oprM); experiment: Broth microdilution MIC in iron-depleted CAMHB (IDM); type: cell-based; conditions: Pseudomonas aeruginosa; iron-depleted CAMHB (IDM); […]; read-out: Minimum inhibitory concentration, P. aeruginosa ΔmexAB-oprM
P. aeruginosa CDC-0095 = experiment: microbe, parasite or virus in culture; type: cell-based; conditions: Pseudomonas aeruginosa, CDC0095, read-out: Minimum inhibitory concentration, P. aeruginosa CDC-0095
P. aeruginosa CDC-0110 = experiment: microbe, parasite or virus in culture; type: cell-based; conditions: Pseudomonas aeruginosa, CDC0110, read-out: Minimum inhibitory concentration, P. aeruginosa CDC-0110
A. baumannii CDC-0036 = experiment: microbe, parasite or virus in culture; type: cell-based; conditions: Acinetobacter baumannii, CDC0036, read-out: MIC, A. baumannii CDC-0036
[3] = target: T2, PBP3 from Pseudomonas aeruginosa (PAO1) (Pseudomonas aeruginosa, UniProt G3XD46); experiment: Bocillin-FL fluorescence polarization competition binding, P. aeruginosa PBP3; conditions: Binding affinity to P. aeruginosa PBP3; fluorescence polarization competition binding assay using Bocillin-FL; read-out: P. aeruginosa PBP3 Potency
T2 construct: made in house
Summary of the method: as §1

P. aeruginosa ATCC 35151 = experiment: microbe, parasite or virus in culture; type: cell-based; conditions: Pseudomonas aeruginosa, ATCC35151, read-out: Minimum inhibitory concentration, P. aeruginosa ATCC 35151
A. baumannii 1258916 = experiment: microbe, parasite or virus in culture; type: cell-based, Acinetobacter baumannii; conditions: Acinetobacter baumannii, 1258916, read-out: MIC, A. baumannii 1258916

T2 sequence (G3XD46 whole entry): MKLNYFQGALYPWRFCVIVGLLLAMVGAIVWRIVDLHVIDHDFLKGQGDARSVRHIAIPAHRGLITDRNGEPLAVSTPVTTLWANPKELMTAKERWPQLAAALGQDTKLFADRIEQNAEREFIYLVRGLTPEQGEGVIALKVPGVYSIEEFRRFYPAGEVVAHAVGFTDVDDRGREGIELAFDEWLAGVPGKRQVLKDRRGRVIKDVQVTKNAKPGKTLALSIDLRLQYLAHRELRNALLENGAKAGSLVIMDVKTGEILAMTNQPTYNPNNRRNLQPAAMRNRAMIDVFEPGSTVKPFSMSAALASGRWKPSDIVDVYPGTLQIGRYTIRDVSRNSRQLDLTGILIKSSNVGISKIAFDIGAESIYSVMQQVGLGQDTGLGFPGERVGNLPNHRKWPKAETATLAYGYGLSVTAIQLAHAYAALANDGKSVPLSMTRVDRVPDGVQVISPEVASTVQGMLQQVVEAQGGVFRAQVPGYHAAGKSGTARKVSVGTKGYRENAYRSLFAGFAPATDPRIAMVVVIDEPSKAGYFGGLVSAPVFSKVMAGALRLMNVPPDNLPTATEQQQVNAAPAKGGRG

| SMILES | pIC50 [1] | MIC (A. baumannii CDC-0033) [µg/mL] | MIC [2] [µg/mL] | MIC (P. aeruginosa CDC-0095) [µg/mL] | MIC (P. aeruginosa CDC-0110) [µg/mL] | MIC (A. baumannii CDC-0036) [µg/mL] | pIC50 [3] | MIC (P. aeruginosa ATCC 35151) [µg/mL] | MIC (A. baumannii 1258916) [µg/mL] |
| --- | --- | --- | --- | --- | --- | --- | --- | --- | --- |
| O=C(O)c1c(F)ccc2c1OB(O)[C@@H](NC(=O)[C@H](NC(=O)N1CCN(C3CCN(C(=O)c4c(F)ccc(O)c4F)CC3)C1=O)c1cc(F)c(O)c(O)c1Cl)C2 (single isomer, unassigned) [Example 439] | > 5.00 | < 1 | < 1 | 2 to 4 (≈ 2.52 to 5.04 µM) | < 1 | < 1 | > 5.00 | < 1 | < 1 |
| O=C(O)c1c(F)ccc2c1OB(O)[C@@H](NC(=O)[C@H](NC(=O)N1CCN(C3CCN(C(=O)c4c(F)ccc(O)c4Cl)CC3)C1=O)c1cc(F)c(O)c(O)c1Cl)C2 (single isomer, unassigned) [Example 440] | > 5.00 | < 1 | < 1 | < 1 | < 1 | < 1 | > 5.00 | < 1 | < 1 |
| O=C(O)c1c(F)ccc2c1OB(O)[C@@H](NC(=O)[C@H](NC(=O)N1CCN(C3CCN(C(=O)c4cc(F)c(F)c(O)c4F)CC3)C1=O)c1cc(F)c(O)c(O)c1Cl)C2 (single isomer, unassigned) [Example 441] | > 5.00 | < 1 | < 1 | < 1 | < 1 | < 1 | > 5.00 | < 1 | < 1 |
| O=C(O)c1c(F)ccc2c1OB(O)[C@@H](NC(=O)[C@H](NC(=O)N1CCN(C3CCN(C(=O)c4cc(O)cc(O)c4)CC3)C1=O)c1cc(F)c(O)c(O)c1Cl)C2 (single isomer, unassigned) [Example 442] | > 5.00 | < 1 | < 1 | < 1 | < 1 | < 1 | > 5.00 | < 1 | < 1 |
| O=C(O)c1c(F)ccc2c1OB(O)[C@@H](NC(=O)[C@H](NC(=O)N1CCN(C3CCN(C(=O)c4cc(O)c(F)c(O)c4)CC3)C1=O)c1cc(F)c(O)c(O)c1Cl)C2 (single isomer, unassigned) [Example 443] | > 5.00 | < 1 | < 1 | < 1 | < 1 | < 1 | > 5.00 | < 1 | < 1 |
| O=C(O)c1c(F)ccc2c1OB(O)[C@@H](NC(=O)[C@H](NC(=O)N1CCN(C3CCN(C(=O)c4cc(O)c(F)c(O)c4F)CC3)C1=O)c1cc(F)c(O)c(O)c1Cl)C2 (single isomer, unassigned) [Example 444] | > 5.00 | < 1 | < 1 | < 1 | < 1 | < 1 | > 5.00 | < 1 | < 1 |
| O=C(O)c1c(F)ccc2c1OB(O)[C@@H](NC(=O)[C@H](NC(=O)N1CCN(C3CCN(C(=O)Nc4cccc(O)c4F)CC3)C1=O)c1cc(F)c(O)c(O)c1Cl)C2 (single isomer, unassigned) [Example 446] | > 5.00 | < 1 | < 1 | < 1 | < 1 | < 1 | > 5.00 | < 1 | < 1 |
| O=C(O)c1c(F)ccc2c1OB(O)[C@@H](NC(=O)[C@H](NC(=O)N1CCN(C3CCN(C(=O)Nc4cc(O)ccc4Cl)CC3)C1=O)c1cc(F)c(O)c(O)c1Cl)C2 (single isomer, unassigned) [Example 448] | > 5.00 | < 1 | < 1 | < 1 | < 1 | < 1 | > 5.00 | < 1 | < 1 |
| O=C(O)c1c(F)ccc2c1OB(O)[C@@H](NC(=O)[C@H](NC(=O)N1CCN(C3CCN(C(=O)Nc4ccc(F)c(O)c4)CC3)C1=O)c1cc(F)c(O)c(O)c1Cl)C2 (single isomer, unassigned) [Example 449] | > 5.00 | < 1 | < 1 | < 1 | < 1 | < 1 | > 5.00 | < 1 | < 1 |
